# Measured values as given in patent publication US11331368B2, “Angiotensin receptor agonists and uses thereof” (Monash University, priority 2017, dated 2022).
# Key:
# [1] = tested on: human cardiac fibroblasts; assay: TGF-β1-induced collagen production in human cardiac fibroblasts (Western blot); format: cell-based; settings: co-treated with TGF-β1 for 3 days, increasing concentrations up to 1 μM
# Procedure: D) Human cardiac fibroblasts (HCFs) were treated with TGFβ1 to induce a pro-fibrotic phenotype state in cell culture, exemplified by increased collagen-1 production, measured by Western blot. HCFs were treated with TGFβ1 alone, or in the presence of an AT2R agonist for 3 days, and the ability of AT2R agonists to inhibit TGFβ1-induced collagen-1 production was measured.
# Commercially available human cardiac fibroblasts (HCF, Catalog #6300, Sciencell, Calif., USA) were grown in T75 flask maintained in an incubator at 37° C., 5% CO2. Complete media composition: M199 media (#11150-059, life technologies)+10% FBS (#10437-028, life technologies)+1% Fibroblast Growth Supplement-2 (#2382, ScienCell)+1% penicillin/streptomycin 10,000 U/ml antibiotics (#15140-122, Life Technologies). Fresh complete media was replenished every alternate day until culture reached 70% confluence in which media is replenished daily until it reached approximately 90% confluence in order to passage/subculture. To subculture, media was discarded and culture was rinsed with warm PBS. After which, culture was detached using warm 0.05% Trypsin+EDTA with gentle swirling of flask to make sure cells were not adherent to surface of flask. Trypsin was then neutralized with complete media and suspension was then transferred into a new falcon tube and centrifuged at 1000 rpm for 5 minutes. Supernatant was discarded and pellet of cells were resuspended with 5 ml of complete media, followed by cell counting. For subculturing/passaging, 1 million HCFs are placed into a T75 flask. For Picrosirius Red (PSR) staining or immunofluorescence experiments, 100 k cells were loaded per well in a 24 well plate lined with round coverslips. […]
# Once treatment is complete, cells were washed with warm PBS and detached using Accutase (A6964, Sigma), with 5 minutes incubation at 37° C. […] The supernatant (˜20 ul) was transferred to a new tube and protein concentrations were measured using Biorad Lowry protein assay. Protein quantification of respective markers were performed via standard western blot analysis. […]
# [2] = tested on: male FVB/N mice on high salt diet, liver; assay: High salt (5%) diet intervention model, liver; format: in vivo, mouse; settings: weeks 5-8; peptides 75 pmol/kg/min s.c.; Cand 2 mg/kg/day, captopril 3 mg/kg/day
substance,measurement,setting,value
Arg-Val-Tyr-Ile-His-β-Pro-Phe [βPro-Ang III],TGF-β1-induced collagen production,[1],dose-dependent decreases
same,"liver fibrosis (picrosirius red, polarized light)",[2],appears to attenuate
same,liver steatosis (Oil Red O),[2],partially reversed
